Structures are written as SMILES. Where a name gives a salt, the structure may show the parent alone.

One assay addresses T1, protein farnesyltransferase (Rattus norvegicus, UniProt Q02293+Q04631).
T1 construct: Rat brain protein farnesyltransferase activity is measured; from tissue; host or cells: rat brain; purified according to Reiss et al., Cell 62:81-88 (1990), steps one through three
Nature of the assay: in vitro inhibition of protein farnesyltransferase (scintillation proximity assay, biotin-K Ras B fragment). It counts as biochemical. Conditions: at 1 × 10^-6 M. From the text: The ability of the compounds of the invention to inhibit protein farnesyltransferase or protein geranylgeranyltransferase can be measured according to the method of Moores, et al., J. Biol. Chem. 266: 14603 (1991) or the method of Vogt, et al., J. Biol. Chem. 270:660-664 (1995). In addition, procedures for determination of the inhibition of farnesylation of the oncogene protein Ras are described by Goldstein, et al., J. Biol. Chem., 266:15575-15578 (1991) and by Singh in U.S. Pat. No. 5,245,061.
In addition, in vitro inhibition of protein farnesyltransferase may be measured by the following procedure. Rat brain protein farnesyltransferase activity is measured using an Amersham Life Science commercial scintillation proximity assay kit and substituting a biotin-K Ras B fragment (biotin-[…]CO2 H), 0.1 mM final concentration, for the biotin-lamin substrate provided by Amersham. The enzyme is purified according to Reiss, Y., et al., Cell, 62: 81-88 (1990), utilizing steps one through three.
The % inhibition of protein farnesyltransferase was determined for representative compounds of the invention.
On the technique in general: In a scintillation proximity assay essentially only radioactivity close to the scintillant gives light.
Consider `CSCC[C@H](NC(=O)c1ccc(OCCC2CCCCC2)cc1-c1ccccc1C)C(=O)[O-].[Li+]` [Example 552], for which the “% inhibition of farnesyltransferase” value is recorded as 88%. For the compound `CSCC[C@H](NC(=O)c1ccc(Sc2ccc3ccccc3c2)cc1-c1ccccc1C)C(=O)O` [Example 497], the “% inhibition of farnesyltransferase” value is 94%.

Turning to `CSCC[C@H](NC(=O)c1ccc(COCc2cccs2)cc1-c1ccccc1C)C(=O)[O-].[Li+]` [Example 273], the “% inhibition of farnesyltransferase” value was 96%.

With `CSCC[C@H](NC(=O)c1ccc(COCCCC2CCCCC2)cc1-c1ccccc1C)C(=O)O` [Example 405], the “% inhibition of farnesyltransferase” value turned out to be 98%. Same read-out and setting: the value for `Cc1ccccc1-c1cc(CN(C)C(C)(C)Cc2ccccc2)ccc1C(=O)N[C@@H](CCS(C)(=O)=O)C(=O)O` [Example 313] was 94%. On the same count and under the same terms, the value for `CSCC[C@H](NC(=O)c1ccc(CN(C2CC2)C2(Cc3ccccc3)CCC2)cc1-c1ccccc1C)C(=O)O` [Example 329] was 98%; that for `CSCC[C@H](NC(=O)c1ccc(CN(C(C)C)C(C)(C)Cc2ccccc2)cc1-c1ccccc1C)C(=O)O` [Example 317] was 54%. As to `CSCC[C@H](NC(=O)c1ccc(CN(C)C(C)(C)Cc2ccccc2)cc1-c1ccccc1C)C(=O)O` [Example 309], the “% inhibition of farnesyltransferase” value turned out to be 98%. With `CSCC[C@H](NC(=O)c1ccc(S(=O)(=O)NCCC2CCCCC2)cc1-c1ccccc1C)C(=O)O` [Example 772], the “% inhibition of farnesyltransferase” value is given as 79%.

As to `CSCC[C@H](NC(=O)c1ccc(C=CCCCc2ccccc2)cc1-c1ccccc1C)C(=O)O` [Example 480], the “% inhibition of farnesyltransferase” value is 87%. As for `CSCC[C@H](NC(=O)c1ccc(C[C@H]2CC[C@@H](c3ccccc3)CC2)cc1-c1ccccc1C)C(=O)O` [Example 790], the “% inhibition of farnesyltransferase” value was 88%. Same read-out and setting: the value for `CSCC[C@H](NC(=O)c1ccc(CCCC(=O)c2ccc3ccccc3c2)cc1-c1ccccc1C)C(=O)O` [Example 473] was 96%. For `CSCC[C@H](NC(=O)c1ccc(CN(C(C)C)C2(CC3CCCCC3)CC2)cc1-c1ccccc1C)C(=O)O` [Example 326], the “% inhibition of farnesyltransferase” value worked out at 91%. Still for that read-out and setting: the value for `CSCC[C@H](NC(=O)c1ccc(COCCC23CC4CC(CC(C4)C2)C3)cc1-c1ccccc1C)C(=O)O` [Example 404] was 98%; that for `CSCC[C@H](NC(=O)c1ccc(/C=C/CC(O)c2ccc3ccccc3c2)cc1-c1ccccc1C)C(=O)O` (some centres unmarked) [Example 474] was 92%; that for `COc1ccc(CCOCc2ccc(C(=O)N[C@@H](CCSC)C(=O)O)c(-c3ccccc3C)c2)cc1` [Example 937] was 95%.

Still in this assay, the particulars now being: at 1 × 10^-6 M; read-out: % inhibition of farnesyltransferase.
Regarding `CSCC[C@H](NC(=O)c1ccc(CN(Cc2ccccc2)Cc2ccccc2)cc1-c1ccccc1)C(=O)O` [Example 834, N-[4-N,N-dibenzylaminomethyl-2-phenylbenzoyl]methionine lithium salt], the inhibition at 1 µM was found to be 55%. As to `CSCC[C@H](NC(=O)c1ccc(CNc2ccc(S(=O)(=O)Nc3onc(C)c3C)cc2)cc1-c1ccccc1C)C(=O)O` [Example 726], the inhibition at 1 µM came to 81%.

Regarding `CCSC[C@H](CC1CCCCC1)NCc1ccc(C(=O)N(C)[C@@H](CCSC)C(=O)O)c(-c2ccccc2C)c1` [Example 765, lithium salt], the inhibition at 1 µM was 76%. Take `CSCC[C@H](NC(=O)c1ccc(CN(CCO)Cc2ccccc2)cc1-c1ccccc1)C(=O)O` [Example 515, N-[4-N-(2-hydroxyethyl)-N-benzylaminomethyl-2-phenylbenzoyl]methionine lithium salt]: the inhibition at 1 µM stood at 72%.

As for `CSCC[C@H](NC(=O)c1ccc(CN(Cc2ccccc2)Cc2ccccc2)cc1-c1ccccc1C)C(=O)O` [Example 512, N-[4-N,N-dibenzylaminomethyl-2-(2-methylphenyl)benzoyl]methionine lithium salt], the inhibition at 1 µM is 94%.

Regarding `CNCC(=O)Nc1ccc(C(=O)N[C@@H](CCSC)C(=O)O)c(-c2ccccc2)c1` [Example 749], the inhibition at 1 µM was found to be 84%. As to `CSCC[C@H](NC(=O)c1ccc(CNc2ccccc2N2CCCCC2)cc1-c1ccccc1)C(=O)O` [Example 673], the inhibition at 1 µM stood at 59%. Take `COc1ccccc1CCC(=O)Nc1ccc(C(=O)N[C@@H](CCSC)C(=O)O)c(-c2ccccc2C)c1` [Example 544, N-[4-N-(3-(2-methoxyphenyl)propionoyl)amino-2-(2-methylphenyl)benzoyl]methionine lithium salt]: the inhibition at 1 µM came out at 35%.

In the case of `CSCC[C@H](NC(=O)c1ccc(CN(CC23CC4CC(CC(C4)C2)C3)c2ccccc2)cc1-c1ccccc1C)C(=O)O` [Example 510], the inhibition at 1 µM was found to be 84%.

Staying with this assay, now noted: at 1 × 10^-7 M.
As to `CSCC[C@H](NC(=O)c1ccc(COCc2ccc(-c3cccc(C(F)(F)F)c3)o2)cc1-c1ccccc1C)C(=O)[O-].[Li+]` [Example 441], the “% inhibition of farnesyltransferase” value amounted to 91%.

For `CSCC[C@H](NC(=O)c1ccc(CSCC2CCCCC2)cc1-c1ccccc1C)C(=O)[O-].[Li+]` [Example 559], the “% inhibition of farnesyltransferase” value stood at 96%. The same measure, in the same setting: the value for `CSCC[C@H](NC(=O)c1ccc(COCCc2ccc(Cl)cc2)cc1-c1ccccc1C)C(=O)[O-].[Li+]` [Example 590] was 95%. Regarding `CSCC[C@H](NC(=O)c1ccc(CCc2ccc(Oc3ccccc3)nn2)cc1-c1ccccc1C)C(=O)O` [Example 811], the “% inhibition of farnesyltransferase” value was 85%.

For the compound `CSCC[C@H](NC(=O)c1ccc(CSc2nc3ccccc3c(=O)[nH]2)cc1-c1ccccc1C)C(=O)O` [Example 745], the “% inhibition of farnesyltransferase” value is on record as 93%. Turning to `CSCC[C@H](NC(=O)c1ccc(COCCC2CCCCC2)cc1-c1ccccc1C)C(=O)[O-].[Li+]` [Example 594], the “% inhibition of farnesyltransferase” value is reported as 95%.

Staying with this assay, now noted: at 1 × 10^-7 M; read-out: % inhibition of farnesyltransferase.
`CCCCN(CCCC)C(=O)CNCc1ccc(C(=O)N[C@@H](CCSC)C(=O)O)c(-c2ccccc2C)c1` [Example 912, N-[4-(N-(N,N-dibutylacetamido)aminomethyl)-2-(2-methylphenyl)benzoyl]methionine]: the inhibition at 0.1 µM came out at 85%. With `CCSC[C@H](CC1CCCCC1)N(Cc1ccc(C(=O)N[C@@H](CCSC)C(=O)O)c(-c2ccccc2C)c1)C(C)=O` [Example 947, N-[4-N-acetyl-N-(3-Cyclohexyl-1-ethylthiopropan-2-yl)aminomethyl-2-(2-methylphenyl)-benzoyl]methionine], the inhibition at 0.1 µM came out at 79%.

Turning to `CSCC[C@H](NC(=O)c1ccc(CN(Cc2ccc(Cl)cc2)c2ccccc2)cc1-c1ccccc1C)C(=O)O` [Example 781, N-[4-N-(N-phenyl-N-(4-chlorobenzyl)aminomethyl)-2-(2-methylphenyl)benzoyl]methionine lithium salt], the inhibition at 0.1 µM worked out at 91%.

Staying with this assay, now noted: at 1 × 10^-8 M.
Consider `CSCC[C@H](NC(=O)c1ccc(CCc2ccc(Oc3ccc(Cl)cc3)cc2)cc1-c1ccccc1C)C(=O)O` [Example 860], for which the “% inhibition of farnesyltransferase” value amounted to 85%.

For the compound `CCCCC(Cc1ccccc1Cl)OCc1ccc(C(=O)N[C@@H](CCSC)C(=O)O)c(-c2ccccc2C)c1` (some centres unmarked) [Example 943], the “% inhibition of farnesyltransferase” value is on record as 79%.

Take `CCCCC(CCCC)OCc1ccc(C(=O)N[C@@H](CCSC)C(=O)[O-])c(-c2ccccc2C)c1.[Li+]` [Example 942]: the “% inhibition of farnesyltransferase” value is on record as 58%.

For the compound `CSCC[C@H](NC(=O)c1ccc(COCc2cccc(Cl)c2)cc1-c1ccccc1C)C(=O)[O-].[Li+]` [Example 934], the “% inhibition of farnesyltransferase” value was 71%.

In the case of `CSCC[C@H](NC(=O)c1ccc(CSCc2ccccc2)cc1-c1ccccc1C)C(=O)NS(=O)(=O)c1ccc(C)cc1` [Example 586], the “% inhibition of farnesyltransferase” value is on record as 90%.

Staying with this assay, now noted: at 1 × 10^-8 M; read-out: % inhibition of farnesyltransferase.
For `CCSC[C@H](CC1CCCCC1)N(C=O)Cc1ccc(C(=O)N[C@@H](CCSC)C(=O)O)c(-c2ccccc2C)c1` [Example 946, N-[4-N-(3-Cyclohexyl-1-ethylthiopropan-2-yl)-N-formylaminomethyl-2-(2-methylphenyl)benzoyl]methionine], the inhibition at 0.01 µM is 52%. Turning to `CCSC[C@H](CC1CCCCC1)N(C)Cc1ccc(C(=O)N[C@@H](CCSC)C(=O)O)c(-c2ccccc2C)c1` [Example 944, N-[4-N-(3-Cyclohexyl-1-ethylthiopropan-2-yl)-N-methylaminomethyl-2-(2-methylphenyl)benzoyl]-methionine hydrochloride salt], the inhibition at 0.01 µM was 88%. Same read-out and setting: the value for `CSCC[C@H](NC(=O)c1ccc(CN(Cc2cncs2)S(=O)(=O)c2ccc(C)cc2)cc1-c1ccccc1C)C(=O)O` [Example 877] was 68%.

The same assay, now with this note: read-out: % inhibition of farnesyltransferase.
With `CSCC[C@H](NC(=O)c1ccc(CN(Cc2ccccc2)c2ccccc2[N+](=O)[O-])cc1-c1ccccc1C)C(=O)O` [Example 849, N-[4-(N-benzyl-N-(2-nitrophenyl)aminomethyl)-2-(2-methylphenyl)benzoyl]methionine lithium salt], the inhibition at 0.1 µM was determined as 66%.

For the compound `CSCC[C@H](NC(=O)c1ccc(CN(C)CCC2CCCCC2)cc1-c1ccccc1C)C(=O)O` [Example 608, N-[4-(N-(2-cyclohexylethyl)-N-methylaminomethyl)-2-(2-methylphenyl)benzoyl]methionine Lithium Salt], the inhibition at 0.01 µM was determined as 91%.

The inhibition is the percentage by which the read-out fell short of the control.

The values are drawn from patent US6310095A, “Inhibitors of protein isoprenyl transferases” (University of Pittsburgh, priority 1998, dated 2001).
